According to patent US9169254B2, “Spiroimidazolone derivative” (Chugai Seiyaku Kabushiki Kaisha, priority 2009, dated 2015):

These compounds were tested against T1, human PTH1 receptor (Homo sapiens, UniProt Q03431) (assay: In vitro cAMP signal activity in HKRK-B7 cells (LLC-PK1 cells overexpressing the human PTH1 receptor)). Details: 0.1 µM.
T1 sequence (Q03431 27-593): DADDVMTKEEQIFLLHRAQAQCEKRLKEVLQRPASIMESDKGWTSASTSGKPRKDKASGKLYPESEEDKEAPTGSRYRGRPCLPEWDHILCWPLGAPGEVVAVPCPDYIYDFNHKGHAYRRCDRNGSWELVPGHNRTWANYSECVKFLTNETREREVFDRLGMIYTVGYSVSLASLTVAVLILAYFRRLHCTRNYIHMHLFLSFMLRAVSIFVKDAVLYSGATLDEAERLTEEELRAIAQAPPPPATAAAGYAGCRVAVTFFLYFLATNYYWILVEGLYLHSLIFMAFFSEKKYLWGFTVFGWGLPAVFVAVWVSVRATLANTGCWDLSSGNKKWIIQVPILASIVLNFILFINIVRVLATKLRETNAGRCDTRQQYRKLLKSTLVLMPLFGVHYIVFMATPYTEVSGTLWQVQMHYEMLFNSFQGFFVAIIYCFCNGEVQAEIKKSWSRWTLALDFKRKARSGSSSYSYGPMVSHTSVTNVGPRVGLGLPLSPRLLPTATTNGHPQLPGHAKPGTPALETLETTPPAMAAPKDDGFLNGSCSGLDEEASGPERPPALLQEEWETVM
Format: cell-based

Compound | cAMP production activity (%)
Cc1cc(S(=O)(=O)NCC(F)(F)C(F)(F)C(F)(F)F)ccc1CCS(=O)(=O)N1CCC2(CC1)N=C(c1cccc(C(F)(F)F)c1)NC2=O [Compound 667, N-(2,2,3,3,4,4,4-Heptafluoro-butyl)-3-methyl-4-{2-[4-oxo-2-(3-trifluoromethyl-phenyl)-1,3,8-triaza-spiro[4.5]dec-1-ene-8-sulfonyl]-ethyl}-benzenesulfonamide] | 40

Same assay, conditions: HKRK-B7 cells; compound at 1×10^−3 M; cAMP produced as percentage of that produced by hPTH(1-34) at 100 nM

Compound | cAMP production activity (%)
CC(C)(C)[C@H]1CC[C@H](C2=NC3(CCN(S(=O)(=O)c4cccc(Cl)c4)CC3)C(=O)N2)CC1 [Compound 26, 2-(4-tert-butyl-cyclohexyl)-8-(3-chloro-benzenesulfonyl)-1,3,8-triaza-spiro[4.5]dec-1-en-4-one] | 36
O=C1NC(C2CCC(F)(F)CC2)=NC12CCN(S(=O)(=O)/C=C/c1cccc3c1ccn3C[C@H](O)CO)CC2 [Compound 241, 2-(4,4-difluoro-cyclohexyl)-8-{(E)-2-[1-((S)-2,3-dihydroxy-propyl)-1H-indol-4-yl]-ethenesulfonyl}-1,3,8-triaza-spiro[4.5]dec-1-en-4-one] | 44
CCCCCCCCCC1=NC2(CCN(S(=O)(=O)/C=C/c3c(C)cc(N(CCO)C(C)=O)cc3C)CC2)C(=O)N1 [Compound 701, N-{3,5-dimethyl-4-[(E)-2-(2-nonyl-4-oxo-1,3,8-triaza-spiro[4.5]dec-1-ene-8-sulfonyl)-vinyl]-phenyl}-N-(2-hydroxy-ethyl)-acetamide] | 140
Cc1cc(CN2CCCC2=O)cc(C)c1/C=C/S(=O)(=O)N1CCC2(CC1)N=C(C1CCC(CCC(F)(F)F)CC1)NC2=O (stereo not shown) [Compound 556, 8-{(E)-2-[2,6-dimethyl-4-(2-oxo-pyrrolidin-1-ylmethyl)-phenyl]-ethenesulfonyl}-2-[4-(3,3,3-trifluoro-propyl)-cyclohexyl]-1,3,8-triaza-spiro[4.5]dec-1-en-4-one] | 19
Cc1cc(N(CCOCCO)C(N)=O)cc(C)c1CCS(=O)(=O)N1CCC2(CC1)N=C(C1CCC(CCC(F)(F)F)CC1)NC2=O (stereo not shown) [Compound 826, 1-[3,5-dimethyl-4-(2-{4-oxo-2-[4-(3,3,3-trifluoro-propyl)-cyclohexyl]-1,3,8-triaza-spiro[4.5]dec-1-ene-8-sulfonyl}-ethyl)-phenyl]-1-[2-(2-hydroxy-ethoxy)-ethyl]-urea] | 90
CC(=O)N(C)c1ccc(/C(F)=C\S(=O)(=O)N2CCC3(CC2)N=C(C2CCC(C)CC2)NC3=O)c(C)c1 (stereo not shown) [Compound 942, N-(4-{(E)-1-Fluoro-2-[2-(4-methyl-cyclohexyl)-4-oxo-1,3,8-triaza-spiro[4.5]dec-1-ene-8-sulfonyl]-vinyl}-3-methyl-phenyl)-N-methyl-acetamide] | 31
Cc1cc(N(C)C(N)=O)cc(C)c1CCS(=O)(=O)N1CCC2(CC1)N=C(C1CCC(C)CC1)NC2=O (stereo not shown) [Compound 470, 1-(3,5-Dimethyl-4-{2-[2-(4-methyl-cyclohexyl)-4-oxo-1,3,8-triaza-spiro[4.5]dec-1-ene-8-sulfonyl]-ethyl}-phenyl)-1-methyl-urea] | 90
Cc1cc2[nH]c(=O)oc2c(C)c1CCS(=O)(=O)N1CCC2(CC1)N=C([C@H]1CC[C@H](C)CC1)NC2=O [Compound 671, 8-[2-(5,7-Dimethyl-2-oxo-2,3-dihydro-benzoxazol-6-yl)-ethanesulfonyl]-2-(4-methyl-cyclohexyl)-1,3,8-triaza-spiro[4.5]dec-1-en-4-one] | 81
Cc1cc(C(=O)N2CCC(O)CC2)cc(C)c1CCS(=O)(=O)N1CCC2(CC1)N=C(c1ccc(F)c(OC(F)(F)F)c1)NC2=O [Compound 1334, 2-(4-fluoro-3-trifluoromethoxy-phenyl)-8-{2-[4-(4-hydroxy-piperidine-1-carbonyl)-2,6-dimethyl-phenyl]-ethanesulfonyl}-1,3,8-triaza-spiro[4.5]dec-1-en-4-one] | 116
CN(C)C(=O)Cn1ccc2c(/C=C/S(=O)(=O)N3CCC4(CC3)N=C(C3CCCCC3)NC4=O)cccc21 [Compound 193, 2-{4-[(E)-2-(2-cyclohexyl-4-oxo-1,3,8-triaza-spiro[4.5]dec-1-ene-8-sulfonyl)-vinyl]-indol-1-yl}-N,N-dimethyl-acetamide] | 65
Cc1cc(S(=O)(=O)NC2CCC(O)CC2)ccc1/C=C/S(=O)(=O)N1CCC2(CC1)N=C(c1cccc(C(F)(F)F)c1)NC2=O (stereo not shown) [Compound 592, N-(4-hydroxy-cyclohexyl)-3-methyl-4-{(E)-2-[4-oxo-2-(3-trifluoromethyl-phenyl)-1,3,8-triaza-spiro[4.5]dec-1-ene-8-sulfonyl]-vinyl}-benzenesulfonamide] | 87
Cc1cc(C(=O)N2CCC(O)CC2)cc(C)c1CCS(=O)(=O)N1CCC2(CC1)N=C(c1cccc(OC(F)(F)F)c1)NC2=O [Compound 964, 8-{2-[4-(4-Hydroxy-piperidine-1-carbonyl)-2,6-dimethyl-phenyl]-ethanesulfonyl}-2-(3-trifluoromethoxy-phenyl)-1,3,8-triaza-spiro[4.5]dec-1-en-4-one] | 119
CC(C)n1ccc2c(CCS(=O)(=O)N3CCC4(CC3)N=C(C3CCCCC3)NC4=O)cccc21 [Compound 650, 2-cyclohexyl-8-[2-(1-isopropyl-1H-indol-4-yl)-ethanesulfonyl]-1,3,8-triaza-spiro[4.5]dec-1-en-4-one] | 55
Cc1cc(C(=O)N2CCCN2)cc(C)c1CCS(=O)(=O)N1CCC2(CC1)N=C(C1CCC(CCC(F)(F)F)CC1)NC2=O (stereo not shown) [Compound 1386, 8-{2-[2,6-dimethyl-4-(pyrazolidine-1-carbonyl)-phenyl]-ethanesulfonyl}-2-[4-(3,3,3-trifluoro-propyl)-cyclohexyl]-1,3,8-triaza-spiro[4.5]dec-1-en-4-one] | 92
CCCCCCCCC1=NC2(CCN([S@TB17](=O)(=O)CCc3c(C)cc(N(C)C(N)=O)cc3C)CC2)C(=O)N1 [Compound 1142, 1-{3,5-dimethyl-4-[2-(2-octyl-4-oxo-1,3,8-triaza-spiro[4.5]dec-1-ene-8-sulfonyl)-ethyl]-phenyl}-1-methyl-urea] | 68

The next lines start with the values.

cAMP production activity (%) | Compound
78 | CC(=O)Nc1ccc(CCS(=O)(=O)N2CCC3(CC2)N=C(C2CCC(C(C)(C)C)CC2)NC3=O)c(C)c1 (stereo not shown) [Compound 909, N-(4-{2-[2-(4-tert-butyl-cyclohexyl)-4-oxo-1,3,8-triaza-spiro[4.5]dec-1-ene-8-sulfonyl]-ethyl}-3-methyl-phenyl)-acetamide]
66 | Cc1cc(C(=O)N2CC[C@H](O)C2)ccc1CCS(=O)(=O)N1CCC2(CC1)N=C(c1cccc(C(F)(F)F)c1)NC2=O [Compound 370, 8-{2-[4-((S)-3-hydroxy-pyrrolidine-1-carbonyl)-2-methyl-phenyl]-ethanesulfonyl}-2-(3-trifluoromethyl-phenyl)-1,3,8-triaza-spiro[4.5]dec-1-en-4-one]
96 | Cc1cc(C(=O)N2CCC(O)CC2)c(F)cc1CCS(=O)(=O)N1CCC2(CC1)N=C(c1cccc(C(F)(F)F)c1)NC2=O [Compound 419, 8-{2-[5-fluoro-4-(4-hydroxy-piperidine-1-carbonyl)-2-methyl-phenyl]-ethanesulfonyl}-2-(3-trifluoromethyl-phenyl)-1,3,8-triaza-spiro[4.5]dec-1-en-4-one]
24 | O=C(/C=C/c1ccccc1)N1CCCC(C2=NC3(CCN(S(=O)(=O)CCc4cccc5ccccc45)CC3)C(=O)N2)C1 (stereo not shown) [Compound 441, 8-(2-Naphthalen-1-yl-ethanesulfonyl)-2-{1-[(E)-(3-phenyl-acryloyl)]-piperidin-3-yl}-1,3,8-triaza-spiro[4.5]dec-1-en-4-one]
33 | CN(C)C(=O)c1ccc(-c2ccc(S(=O)(=O)N3CCC4(CC3)N=C(c3cccc(C(F)(F)F)c3)NC4=O)s2)cc1 [Compound 329, N,N-Dimethyl-4-{5-[4-oxo-2-(3-trifluoromethyl-phenyl)-1,3,8-triaza-spiro[4.5]dec-1-ene-8-sulfonyl]-thiophen-2-yl}-benzamide]
45 | O=C(CCCc1ccccc1)N1CCCC(C2=NC3(CCN(S(=O)(=O)CCc4cccc5ccccc45)CC3)C(=O)N2)C1 (stereo not shown) [Compound 437, 8-(2-naphthalen-1-yl-ethanesulfonyl)-2-[1-(4-phenyl-butyryl)-piperidin-3-yl]-1,3,8-triaza-spiro[4.5]dec-1-en-4-one]
3.0 | Cc1cc(C(=O)N(C)C)ccc1CCS(=O)(=O)N1CCC2(CC1)N=C(c1nccn1C)NC2=O [Compound 122, 3,N,N-trimethyl-4-{2-[2-(1-methyl-1H-imidazol-2-yl)-4-oxo-1,3,8-triaza-spiro[4.5]dec-1-ene-8-sulfonyl]-ethyl}-benzamide]
77 | Cc1cc(C(=O)N(C)C)ccc1CCS(=O)(=O)N1CCC2(CC1)N=C(N(C)Cc1ccccc1)NC2=O [Compound 1398, 4-{2-[2-(benzyl-methyl-amino)-4-oxo-1,3,8-triaza-spiro[4.5]dec-1-ene-8-sulfonyl]-ethyl}-3,N,N-trimethyl-benzamide]
69 | CC(=O)Nc1ccc(CCS(=O)(=O)N2CCC3(CC2)N=C(C2CCC(C(F)(F)F)CC2)NC3=O)c(C)c1 (stereo not shown) [Compound 904, N-(3-methyl-4-{2-[4-oxo-2-(4-trifluoromethyl-cyclohexyl)-1,3,8-triaza-spiro[4.5]dec-1-ene-8-sulfonyl]-ethyl}-phenyl)-acetamide]
